Read-outs that look alike come from different tables or passages of the source.
Assays:
M3 muscarinic receptor = M3 muscarinic receptor (Homo sapiens, UniProt P20309); assay: Intracellular calcium assay, untransfected HEK293 cells with endogenous receptor; assay type: cell-based
untransfected HeLa cells = assay: cAMP-Glo assay, control cells; assay type: cell-based, human; settings: efavirenz 30 μM, clozapine 30 μM, 5-HT 1 μM
5-HT2A receptor [1] = biological target: T1, 5-HT2A receptor (Homo sapiens, UniProt P28223); assay: Intracellular calcium assay of Gq signaling, HEK293 cells; assay type: cell-based; settings: for agonist efficacy class: intracellular calcium
5-HT6 receptor [2] = biological target: T2, 5-HT6 receptor (Rattus norvegicus, UniProt P31388); assay: cAMP-Glo assay of Gs signaling, HeLa cells; assay type: cell-based
5-HT6 receptor [3] = biological target: T2, 5-HT6 receptor; assay: Competition radioligand binding, concentration-response
[4] = cited from earlier work
r5-HT6 = r5-HT6 (Rattus norvegicus, UniProt P31388); assay: Radioligand displacement by a fixed drug concentration, [3H]LSD
α1β2γ2 GABAA receptors = α1β2γ2 GABAA receptors (Rattus norvegicus, UniProt P18508+P62813+P63138); assay: Whole cell electrophysiology, GABA-activated currents, HEK293 cells; assay type: cell-based; settings: 30 μM; for reduction of GABA-activated currents: EC30 GABA (5 μM)
h5-HT2C = biological target: T3, h5-HT2C (Homo sapiens, UniProt P28335); assay: Radioligand displacement by a fixed drug concentration, [3H]mesulergine
T3 sequence (P28335 33-458): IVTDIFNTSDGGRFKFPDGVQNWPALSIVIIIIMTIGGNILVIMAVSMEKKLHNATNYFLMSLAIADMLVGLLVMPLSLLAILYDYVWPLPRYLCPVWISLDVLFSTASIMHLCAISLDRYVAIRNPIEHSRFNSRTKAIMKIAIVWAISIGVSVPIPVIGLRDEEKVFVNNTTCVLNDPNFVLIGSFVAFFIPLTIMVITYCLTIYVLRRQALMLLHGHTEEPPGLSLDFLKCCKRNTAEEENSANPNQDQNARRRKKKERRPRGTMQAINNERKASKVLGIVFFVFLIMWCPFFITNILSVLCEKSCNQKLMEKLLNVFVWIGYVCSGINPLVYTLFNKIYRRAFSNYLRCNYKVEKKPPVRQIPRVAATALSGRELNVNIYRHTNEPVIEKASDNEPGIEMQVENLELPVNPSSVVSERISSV

untransfected CHO cells = assay: Intracellular calcium assay, control cells; assay type: cell-based; settings: data not shown
h5-HT2A = h5-HT2A (Homo sapiens, UniProt P28223)
[5] = test system: endogenous β-adrenergic receptor; assay: cAMP-Glo assay, untransfected HeLa cells stimulated with; assay type: cell-based, human
5-HT2A receptor [6] = biological target: T1, 5-HT2A receptor; settings: cloned human 5-HT2A receptor; cited from earlier work

α1β2γ2 GABAA receptors, sequence (P62813 28-455): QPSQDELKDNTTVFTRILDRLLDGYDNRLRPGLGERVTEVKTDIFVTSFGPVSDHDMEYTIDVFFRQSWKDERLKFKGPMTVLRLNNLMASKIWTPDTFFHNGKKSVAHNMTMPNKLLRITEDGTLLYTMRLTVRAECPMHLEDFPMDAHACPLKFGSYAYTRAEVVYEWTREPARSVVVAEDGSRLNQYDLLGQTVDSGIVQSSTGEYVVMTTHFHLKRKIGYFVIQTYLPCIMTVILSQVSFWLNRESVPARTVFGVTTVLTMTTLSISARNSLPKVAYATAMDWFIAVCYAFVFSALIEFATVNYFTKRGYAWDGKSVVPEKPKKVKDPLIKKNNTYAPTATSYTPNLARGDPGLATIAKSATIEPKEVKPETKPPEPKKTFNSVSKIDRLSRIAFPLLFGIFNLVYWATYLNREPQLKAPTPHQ
α1β2γ2 GABAA receptors, sequence (P63138 26-474): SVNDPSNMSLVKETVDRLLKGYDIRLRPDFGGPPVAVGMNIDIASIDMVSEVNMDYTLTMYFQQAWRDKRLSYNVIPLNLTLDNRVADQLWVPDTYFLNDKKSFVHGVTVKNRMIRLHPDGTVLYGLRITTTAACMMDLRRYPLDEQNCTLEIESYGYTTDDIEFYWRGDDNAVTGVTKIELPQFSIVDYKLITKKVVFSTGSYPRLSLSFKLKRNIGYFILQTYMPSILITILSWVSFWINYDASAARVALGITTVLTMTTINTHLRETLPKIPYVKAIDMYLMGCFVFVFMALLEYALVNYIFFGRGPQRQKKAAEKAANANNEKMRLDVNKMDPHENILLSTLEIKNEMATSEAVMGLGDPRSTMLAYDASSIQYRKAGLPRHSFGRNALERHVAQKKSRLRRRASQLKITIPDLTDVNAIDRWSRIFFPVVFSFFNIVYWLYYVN
α1β2γ2 GABAA receptors, sequence (P18508 39-466): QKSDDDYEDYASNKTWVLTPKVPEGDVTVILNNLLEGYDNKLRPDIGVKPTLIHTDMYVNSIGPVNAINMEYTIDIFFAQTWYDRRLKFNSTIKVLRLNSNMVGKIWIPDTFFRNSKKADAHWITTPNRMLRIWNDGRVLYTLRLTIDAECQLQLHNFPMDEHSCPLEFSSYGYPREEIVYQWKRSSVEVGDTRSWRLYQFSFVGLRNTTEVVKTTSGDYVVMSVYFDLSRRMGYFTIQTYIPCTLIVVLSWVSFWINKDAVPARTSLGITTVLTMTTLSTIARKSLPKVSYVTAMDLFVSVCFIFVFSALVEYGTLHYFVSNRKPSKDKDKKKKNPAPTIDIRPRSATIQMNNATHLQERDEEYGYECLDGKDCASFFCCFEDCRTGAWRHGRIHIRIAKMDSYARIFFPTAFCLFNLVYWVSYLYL
T2 sequence (P31388 whole entry): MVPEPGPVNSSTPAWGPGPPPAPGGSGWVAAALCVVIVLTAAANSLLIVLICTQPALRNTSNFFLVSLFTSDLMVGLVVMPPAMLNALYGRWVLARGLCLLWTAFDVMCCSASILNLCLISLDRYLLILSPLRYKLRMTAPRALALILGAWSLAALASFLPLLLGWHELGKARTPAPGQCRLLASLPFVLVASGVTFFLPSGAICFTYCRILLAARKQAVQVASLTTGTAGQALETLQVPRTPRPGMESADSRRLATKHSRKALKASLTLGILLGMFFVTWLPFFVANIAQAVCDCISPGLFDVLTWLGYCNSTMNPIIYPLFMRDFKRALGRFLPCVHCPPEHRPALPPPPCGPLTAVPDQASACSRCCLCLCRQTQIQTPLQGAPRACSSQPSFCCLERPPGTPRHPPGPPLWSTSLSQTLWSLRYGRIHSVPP
r5-HT6, sequence (P31388 whole entry): as above
T1 sequence (P28223 whole entry): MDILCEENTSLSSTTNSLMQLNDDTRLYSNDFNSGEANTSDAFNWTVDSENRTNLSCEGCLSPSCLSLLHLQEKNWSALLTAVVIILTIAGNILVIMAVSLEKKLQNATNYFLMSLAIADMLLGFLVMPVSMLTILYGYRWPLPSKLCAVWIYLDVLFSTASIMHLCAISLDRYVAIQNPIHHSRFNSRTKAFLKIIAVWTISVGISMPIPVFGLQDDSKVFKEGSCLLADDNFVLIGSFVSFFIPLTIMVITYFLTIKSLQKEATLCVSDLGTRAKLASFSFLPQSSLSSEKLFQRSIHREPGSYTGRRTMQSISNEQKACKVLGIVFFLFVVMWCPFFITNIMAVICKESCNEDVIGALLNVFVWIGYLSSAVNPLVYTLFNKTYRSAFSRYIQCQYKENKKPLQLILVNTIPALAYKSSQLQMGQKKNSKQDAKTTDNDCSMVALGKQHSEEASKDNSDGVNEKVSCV
M3 muscarinic receptor, sequence (P20309 whole entry): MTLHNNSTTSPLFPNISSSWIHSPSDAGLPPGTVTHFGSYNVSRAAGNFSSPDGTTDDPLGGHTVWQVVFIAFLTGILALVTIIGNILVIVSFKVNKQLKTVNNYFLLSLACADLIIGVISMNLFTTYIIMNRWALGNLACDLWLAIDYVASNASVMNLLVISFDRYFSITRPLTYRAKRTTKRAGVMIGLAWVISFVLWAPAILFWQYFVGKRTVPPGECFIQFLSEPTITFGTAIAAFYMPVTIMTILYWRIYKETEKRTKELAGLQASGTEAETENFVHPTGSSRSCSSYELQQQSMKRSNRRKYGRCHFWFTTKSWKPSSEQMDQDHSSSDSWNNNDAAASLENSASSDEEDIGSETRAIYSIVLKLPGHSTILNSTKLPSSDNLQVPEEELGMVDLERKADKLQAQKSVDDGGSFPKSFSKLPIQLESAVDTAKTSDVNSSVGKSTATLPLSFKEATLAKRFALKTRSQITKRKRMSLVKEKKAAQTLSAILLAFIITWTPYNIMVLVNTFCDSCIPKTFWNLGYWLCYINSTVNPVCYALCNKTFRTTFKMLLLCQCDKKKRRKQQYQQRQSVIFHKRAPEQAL
h5-HT2A, sequence (P28223 whole entry): as the sequence (P28223 whole entry) above

With `CN1[C@@H]2C[C@@H](OC(=O)[C@H](CO)c3ccccc3)C[C@H]1[C@@H]1O[C@@H]12` [scopolamine] the “block of acetylcholine response” value (M3 muscarinic receptor) was “blocked”.
In the case of `NCCc1c[nH]c2ccc(O)cc12` [serotonin, 5-Hydroxytryptamine], the “change in cAMP levels” value (untransfected HeLa cells) is reported as “no significant changes in cAMP levels”, the “pseudo Hill slope range” value (5-HT2A receptor [1]; across serum conditions) is reported as 0.55–0.70 and the EC50 (5-HT6 receptor [2]) is reported as 12.7 ± 6.2 nM. For the same compound, the “pseudo Hill slope” value (5-HT6 receptor [2]; increase in cAMP) was 1.02 ± 0.35 and the Ki (5-HT6 receptor [3]) was 105 ± 8 nM.
In the case of `CCN(CC)C(=O)[C@@H]1C=C2c3cccc4[nH]cc(c34)C[C@H]2N(C)C1` [LSD, Lysergic acid diethylamide], the agonist efficacy class (5-HT2A receptor [1]) is listed as “partial agonists” and the “substitution when efavirenz was the discriminative stimulus” value [4] is listed as “partially substituted for efavirenz”.
In the case of `Cc1cn([C@H]2C[C@H](N=[N+]=[N-])[C@@H](CO)O2)c(=O)[nH]c1=O` [ZDV], the “interaction (radioligand displacement)” value (r5-HT6; 10 μM ARV drug, data not shown) is reported as “no significant interactions”, the “interaction (radioligand displacement)” value (r5-HT6; 60 μM ARV drug) is reported as “only NVP displayed a significant, albeit comparatively weak interaction, with the 5-HT6 receptor” and the “reduction of GABA-activated currents” value (α1β2γ2 GABAA receptors) is reported as 36–50 % of control. The “interaction (radioligand displacement)” value (h5-HT2C; 10 μM ARV drug, data not shown) was “no significant interactions” and the “interaction (radioligand displacement)” value (h5-HT2C; 60 μM ARV drug) was “only NVP displayed a significant, albeit comparatively weak interaction, with the 5-HT6 receptor”.
For `Cc1ccnc2c1NC(=O)c1cccnc1N2C1CC1` [NVP], the “interaction (radioligand displacement)” value (r5-HT6; 10 μM ARV drug, data not shown) was “no significant interactions”, the “interaction (radioligand displacement)” value (r5-HT6; 60 μM ARV drug) was “significant, albeit comparatively weak interaction” and the “affinity lower than for efavirenz” value (r5-HT6; 5-HT6 receptor, estimated) was “approximately 30 fold”. For the same compound, the “potentiation of GABA-activated currents” value (α1β2γ2 GABAA receptors; co-application with GABA) was 8%, the “interaction (radioligand displacement)” value (h5-HT2C; 10 μM ARV drug, data not shown) was “no significant interactions” and the “interaction (radioligand displacement)” value (h5-HT2C; 60 μM ARV drug) was “only NVP displayed a significant, albeit comparatively weak interaction, with the 5-HT6 receptor”.
With `C[N+](C)(C)CCOC(N)=O` [carbachol] the Gq-mediated response (untransfected CHO cells) was “No Gq-mediated response”.
In the case of `CN1CCN(C2=Nc3cc(Cl)ccc3Nc3ccccc32)CC1` [clozapine], the “change in cAMP levels” value (untransfected HeLa cells) is reported as “no significant changes in cAMP levels”, the “effect on 5-HT agonist effect” value (5-HT6 receptor [2]; 30 μM) is reported as “completely overcame the agonist effects of 5-HT but also reduced cAMP levels to below basal” and the “effect on basal cAMP” value (5-HT6 receptor [2]; 30 μM) is reported as “significantly reduced basal levels of cAMP”.
For `Nc1nc(=O)n([C@@H]2CS[C@H](CO)O2)cc1F` [FTC], the “interaction (radioligand displacement)” value (h5-HT2A; 10 μM ARV drug, data not shown) was “no significant interactions”, the “interaction (radioligand displacement)” value (h5-HT2A; 60 μM ARV drug) was “only NVP displayed a significant, albeit comparatively weak interaction, with the 5-HT6 receptor” and the “interaction (radioligand displacement)” value (r5-HT6; 10 μM ARV drug, data not shown) was “no significant interactions”. For the same compound, the “interaction (radioligand displacement)” value (r5-HT6; 60 μM ARV drug) was “only NVP displayed a significant, albeit comparatively weak interaction, with the 5-HT6 receptor”, the “reduction of GABA-activated currents” value (α1β2γ2 GABAA receptors) was 36–50 % of control and the “interaction (radioligand displacement)” value (h5-HT2C; 10 μM ARV drug, data not shown) was “no significant interactions”. For the same compound, the “interaction (radioligand displacement)” value (h5-HT2C; 60 μM ARV drug) was “only NVP displayed a significant, albeit comparatively weak interaction, with the 5-HT6 receptor”.
For `COc1cccc([C@H](O)C2CCN(CCc3ccc(F)cc3)CC2)c1OC` [MDL100,907], the “effect of pretreatment on efavirenz substitution for LSD” value [4] is given as “this substitution was blocked by pretreatment”.
For `CC(C)(C)NC[C@H](O)COc1nsnc1N1CCOCC1` [timolol], the “effect on (−)-epinephrine stimulated cAMP response” value [5] was “blocked”.
In the case of `COc1cc(CC(C)N)c(OC)cc1I` (racemic) [(±)-DOI], the agonist efficacy class (5-HT2A receptor [1]) is reported as “partial agonists”.
For `CN1CN(c2ccccc2)C2(CCN(CCCC(=O)c3ccc(F)cc3)CC2)C1=O` [[^3H]MSP, [3H]methylspiperone], the Kd (5-HT2A receptor [6]) is given as 0.246 nM.
With `CC(=O)OCC[N+](C)(C)C` [acetylcholine] the receptor activation (M3 muscarinic receptor) was “activated” and the Gq-mediated response (untransfected CHO cells) was “No Gq-mediated response”.

Reference: publication PMC4914440 (Pharmacological research, 2016)
